Legend:
CYP125 = CYP125 (Mycobacterium tuberculosis, UniProt P9WPP1); type: binding; details: fragment 1 mM, P450 4-6 µM; Soret shift relative to DMSO (393 nm)
CYP142 = CYP142 (Mycobacterium tuberculosis, UniProt P9WPL5); details: fragment 1 mM, P450 4-6 µM; relative to DMSO (418.5 nm)
CYP124 = CYP124 (Mycobacterium tuberculosis, UniProt P9WPP3); details: fragment 1 mM, P450 4-6 µM; relative to DMSO (419 nm)
CYP121 = CYP121 (Mycobacterium tuberculosis, UniProt P9WPP7); details: fragment 1 mM, P450 4-6 µM; relative to DMSO (417 nm)
CYP126 = CYP126 (Mycobacterium tuberculosis, UniProt P9WPN9); details: fragment 1 mM, P450 4-6 µM; relative to DMSO (418 nm)
CYP143 = CYP143 (Mycobacterium tuberculosis, UniProt P9WPL3); details: fragment 1 mM, P450 4-6 µM; relative to DMSO (416 nm)
CYP144 = CYP144 (Mycobacterium tuberculosis, UniProt P9WPL1); details: fragment 1 mM, P450 4-6 µM; relative to DMSO (421 nm)
Sequence of CYP144 (P9WPL1 whole entry, the tested form may be a part): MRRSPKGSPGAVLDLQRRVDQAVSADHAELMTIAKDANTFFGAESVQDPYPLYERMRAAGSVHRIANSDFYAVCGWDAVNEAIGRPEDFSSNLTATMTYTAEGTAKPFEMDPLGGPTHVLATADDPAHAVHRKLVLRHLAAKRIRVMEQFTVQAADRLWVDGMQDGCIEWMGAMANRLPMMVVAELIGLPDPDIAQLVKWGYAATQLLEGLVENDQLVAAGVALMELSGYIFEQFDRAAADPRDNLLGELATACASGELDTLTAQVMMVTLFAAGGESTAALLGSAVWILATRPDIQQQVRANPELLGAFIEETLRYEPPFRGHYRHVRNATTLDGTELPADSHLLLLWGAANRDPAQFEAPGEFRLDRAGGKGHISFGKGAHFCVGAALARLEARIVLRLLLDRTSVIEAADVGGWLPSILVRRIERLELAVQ

Sequence of CYP125 (P9WPP1 whole entry, the tested form may be a part): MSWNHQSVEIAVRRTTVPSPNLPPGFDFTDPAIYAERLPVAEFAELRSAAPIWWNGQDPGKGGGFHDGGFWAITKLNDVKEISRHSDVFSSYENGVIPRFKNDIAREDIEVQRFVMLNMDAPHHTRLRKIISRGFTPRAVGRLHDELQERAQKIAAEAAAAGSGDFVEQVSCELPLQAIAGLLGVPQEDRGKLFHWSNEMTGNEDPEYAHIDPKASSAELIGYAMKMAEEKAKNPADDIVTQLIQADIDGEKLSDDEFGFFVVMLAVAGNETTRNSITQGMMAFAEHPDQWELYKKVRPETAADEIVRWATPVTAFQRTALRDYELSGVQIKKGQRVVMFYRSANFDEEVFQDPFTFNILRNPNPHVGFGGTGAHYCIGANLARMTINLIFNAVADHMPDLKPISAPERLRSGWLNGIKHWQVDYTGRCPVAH
Sequence of CYP143 (P9WPL3 whole entry, the tested form may be a part): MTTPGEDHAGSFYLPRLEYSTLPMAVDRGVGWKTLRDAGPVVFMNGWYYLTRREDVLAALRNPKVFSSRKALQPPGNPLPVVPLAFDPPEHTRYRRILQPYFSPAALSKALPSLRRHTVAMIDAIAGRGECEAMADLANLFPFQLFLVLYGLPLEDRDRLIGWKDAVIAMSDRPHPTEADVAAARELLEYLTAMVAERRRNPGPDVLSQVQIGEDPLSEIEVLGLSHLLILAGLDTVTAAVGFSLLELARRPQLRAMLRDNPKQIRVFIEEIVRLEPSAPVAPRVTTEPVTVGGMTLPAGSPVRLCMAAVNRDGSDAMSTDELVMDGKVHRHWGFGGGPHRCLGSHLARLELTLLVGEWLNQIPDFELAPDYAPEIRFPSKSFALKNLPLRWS
Sequence of CYP124 (P9WPP3 whole entry, the tested form may be a part): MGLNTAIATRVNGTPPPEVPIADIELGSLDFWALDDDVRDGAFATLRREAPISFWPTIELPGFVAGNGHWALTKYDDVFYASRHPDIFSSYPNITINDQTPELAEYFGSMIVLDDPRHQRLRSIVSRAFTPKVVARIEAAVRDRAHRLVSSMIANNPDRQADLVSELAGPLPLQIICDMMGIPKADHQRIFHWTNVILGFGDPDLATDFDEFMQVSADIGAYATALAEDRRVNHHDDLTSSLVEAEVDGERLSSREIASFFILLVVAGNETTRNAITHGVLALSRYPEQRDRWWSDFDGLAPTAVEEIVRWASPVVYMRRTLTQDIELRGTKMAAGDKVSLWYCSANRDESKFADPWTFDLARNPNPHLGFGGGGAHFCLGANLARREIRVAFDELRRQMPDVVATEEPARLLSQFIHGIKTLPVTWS
Sequence of CYP126 (P9WPN9 whole entry, the tested form may be a part): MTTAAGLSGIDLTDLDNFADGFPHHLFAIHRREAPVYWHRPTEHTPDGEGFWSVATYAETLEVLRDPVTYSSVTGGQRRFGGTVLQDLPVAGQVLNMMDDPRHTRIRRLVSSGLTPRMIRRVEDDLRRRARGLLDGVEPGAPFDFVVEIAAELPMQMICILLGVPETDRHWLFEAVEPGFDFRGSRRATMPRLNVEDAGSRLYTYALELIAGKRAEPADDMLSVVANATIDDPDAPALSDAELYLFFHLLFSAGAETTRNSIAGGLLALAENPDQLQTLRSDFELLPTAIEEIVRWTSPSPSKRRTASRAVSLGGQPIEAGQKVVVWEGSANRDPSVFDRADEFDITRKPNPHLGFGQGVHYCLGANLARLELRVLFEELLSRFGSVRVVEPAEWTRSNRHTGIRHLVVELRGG
Sequence of CYP121 (P9WPP7 whole entry, the tested form may be a part): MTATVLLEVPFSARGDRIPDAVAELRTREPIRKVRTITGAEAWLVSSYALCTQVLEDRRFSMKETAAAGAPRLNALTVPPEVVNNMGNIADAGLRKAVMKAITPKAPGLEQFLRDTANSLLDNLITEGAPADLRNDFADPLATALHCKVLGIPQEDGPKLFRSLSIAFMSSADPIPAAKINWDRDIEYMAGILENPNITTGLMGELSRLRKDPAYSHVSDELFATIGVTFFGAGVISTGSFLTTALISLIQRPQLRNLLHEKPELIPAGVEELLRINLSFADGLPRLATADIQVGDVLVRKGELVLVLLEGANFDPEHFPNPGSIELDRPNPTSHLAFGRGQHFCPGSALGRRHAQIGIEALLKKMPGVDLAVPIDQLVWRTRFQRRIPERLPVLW
Sequence of CYP142 (P9WPL5 whole entry, the tested form may be a part): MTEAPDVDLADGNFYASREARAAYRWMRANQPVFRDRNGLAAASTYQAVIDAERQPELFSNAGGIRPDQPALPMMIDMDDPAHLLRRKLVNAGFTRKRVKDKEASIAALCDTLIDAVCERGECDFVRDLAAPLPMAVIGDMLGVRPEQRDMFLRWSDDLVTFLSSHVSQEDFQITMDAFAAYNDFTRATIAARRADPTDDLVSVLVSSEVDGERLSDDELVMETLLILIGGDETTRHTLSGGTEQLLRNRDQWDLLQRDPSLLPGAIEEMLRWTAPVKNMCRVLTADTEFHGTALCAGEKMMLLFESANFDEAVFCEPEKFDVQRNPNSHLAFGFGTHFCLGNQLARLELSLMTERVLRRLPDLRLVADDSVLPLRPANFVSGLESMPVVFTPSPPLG

Row | Structure (SMILES) | Δλmax (nm) CYP125, fragment screen (CYP125) [nm] | Δλmax (nm) CYP142, fragment screen (CYP142) [nm] | Δλmax (nm) CYP124, fragment screen (CYP124) [nm] | Δλmax (nm) CYP121, fragment screen (CYP121) [nm] | Δλmax (nm) CYP126, fragment screen (CYP126) [nm] | Δλmax (nm) CYP143, fragment screen (CYP143) [nm] | Δλmax (nm) CYP144, fragment screen (CYP144) [nm]
1 | Nc1ccc(Oc2ccccc2)nc1 [compound 48] | 0 | 1.5 | -1 | 1 | 2 | 0.5 | 0
2 | Cc1cc(C(=O)O)[nH]n1 [compound 32] | 0 | 0 | 0 | 0 | 0 | -0.5 | 0
3 | COC(=O)c1ccnc(N)c1 [compound 25] | 0 | 0 | 0 | 0 | 0 | 0.5 | 0
4 | N#Cc1cccc(-n2ccnc2)c1 [compound 71] | 0 | 3 | 1 | 0 | 0 | 2.5 | 0
5 | C#Cc1cccnc1 [compound 75] | 0 | 0 | 0 | 0 | 0 | 0 | 0
6 | CNCc1cccc(-c2ccccc2)c1 [compound 21] | 25 | 3 | -1 | 0 | 1 | 4 | 0
7 | Cc1cc(C)n(-c2ccc(N)cc2)n1 [compound 16] | 0 | 0 | 0 | -1 | 0 | 0.5 | 0
8 | COC(=O)c1cc2ccccc2cn1 [compound 26] | 0 | 0 | 0 | 0 | 0 | 1 | 0
9 | N#Cc1ccccn1 [compound 40] | 0 | 0 | 0 | 0 | 0 | 0.5 | 0
10 | O=C(O)c1ccccc1-n1cccn1 [compound 22] | 0 | 0 | 0 | 0 | 0 | 0 | 0
11 | Nc1cc(-c2ccc(Cl)cc2)n[nH]1 [compound 12] | -2 | 0 | -1 | 2 | 1 | 0 | 0
12 | COc1ccc(C(C)=O)cn1 [compound 31] | 0 | 0 | 0 | 0 | 0 | 0.5 | 0
13 | Clc1cncc(Cl)c1 [compound 19] | 0 | 0 | 0 | 0 | 0 | 0 | 0
14 | Clc1ccc(Cl)nn1 [compound 27] | 0 | 0 | 0 | 0 | 0 | 0.5 | 0
15 | Nc1ccccn1 [compound 43] | 0 | 0 | 0 | 0 | 0 | 1 | 0
16 | Nc1ccc(-n2cccn2)cc1 [compound 49] | 0 | 0 | 0 | 0 | 2 | 1 | 0
17 | Nc1ccc(Cl)nn1 [compound 73] | 0 | 0 | 0 | 0 | 0 | 0 | 0
18 | Oc1cccnc1O [compound 42] | 0 | 0 | -1 | -1 | 0 | 0.5 | 0
19 | O=C(O)CCc1ccccc1 [compound 36] | 0 | 0 | 0 | 0 | 2 | 1 | 0
20 | Cc1n[nH]cc1Br [compound 38] | 0 | 1.5 | 0 | 0 | 0 | 0 | 0
21 | O=C(O)c1ccnn1-c1ccccc1 [compound 51] | 0 | 0 | 0 | -1 | 0 | 0.5 | 0
22 | O=C(O)CCc1nc2ccccc2[nH]1 [compound 34] | 0 | 0 | 0 | 0 | 0 | 0.5 | 0

— PMC12305662, “Fragment-Based Development of Small Molecule Inhibitors Targeting Mycobacterium tuberculosis Cholesterol Metabolism” (Journal of Medicinal Chemistry, 2025)
